Read-outs that look alike come from different tables or passages of the source.
Key:
[1] = system: HeLa cell line; assay: Proliferation assay (HeLa cell line); format: cell-based; details: Homo sapiens, 96 h, read-out: Biological Assay 2: Proliferation assay (HeLa cell line) median IC50
Description: Cultivated tumor cells (cells were ordered from ATCC, except HeLa-MaTu and HeLa-MaTu-ADR, which were ordered from EPO-GmbH, Berlin) were plated at a density of 1000 to 5000 cells/well, depending on the growth rate of the respective cell line, in a 96-well multititer plate in 200 μL of their respective growth medium supplemented 10% fetal calf serum. After 24 hours, the cells of one plate (zero-point plate) were stained with crystal violet (see below), while the medium of the other plates was replaced by fresh culture medium (200 μL), to which the test substances were added in various concentrations (0 μM, as well as in the range of 0.001-10 μM; the final concentration of the solvent dimethyl sulfoxide was 0.5%). The cells were incubated for 4 days in the presence of test substances. Cell proliferation was determined by staining the cells with crystal violet: the cells were fixed by adding 20 μl/measuring point of an 11% glutaric aldehyde solution for 15 minutes at room temperature. After three washing cycles of the fixed cells with water, the plates were dried at room temperature. The cells were stained by adding 100 μl/measuring point of a 0.1% crystal violet solution (pH 3.0). After three washing cycles of the stained cells with water, the plates were dried at room temperature. The dye was dissolved by adding 100 μl/measuring point of a 10% acetic acid solution. Absorption was determined by photometry at a wavelength of 595 nm. The change of cell number, in percent, was calculated by normalization of the measured values to the absorption values of the zero-point plate (=0%) and the absorption of the untreated (0 μm) cells (=100%). The IC50 values were determined by means of a 4 parameter fit using the company's own software.

[2] = molecular target: T1, catalytic domain of human Bub1 (amino acids 704-1085) (Homo sapiens, UniProt O43683); assay: Bub1 kinase assay (TR-FRET); format: biochemical
T1 construct: catalytic domain of human Bub1 (amino acids 704-1085); His6 (N); made in house; host or cells: Hi5 insect cells
T1 sequence (O43683 704-1085): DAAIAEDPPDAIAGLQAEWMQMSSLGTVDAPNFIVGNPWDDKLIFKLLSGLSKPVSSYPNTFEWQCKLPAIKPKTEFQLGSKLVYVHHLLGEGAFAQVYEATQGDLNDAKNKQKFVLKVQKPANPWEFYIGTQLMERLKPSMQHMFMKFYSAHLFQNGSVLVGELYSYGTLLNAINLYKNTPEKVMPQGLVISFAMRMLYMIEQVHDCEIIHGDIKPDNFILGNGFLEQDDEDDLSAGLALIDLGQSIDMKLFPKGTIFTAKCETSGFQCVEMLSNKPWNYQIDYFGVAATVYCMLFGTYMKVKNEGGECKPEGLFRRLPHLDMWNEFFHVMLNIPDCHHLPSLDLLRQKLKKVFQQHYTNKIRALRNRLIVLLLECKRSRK
Description: To this end, 100-fold concentrated compound solutions (in DMSO) were previously prepared by serial dilution (1:3.4) of 2 mM stocks in a clear low volume 384-well source microtiter plate (Greiner Bio-One, Frickenhausen, Germany), from which 50 nl of compounds were transferred into a black low volume test microtiter plate from the same supplier. […] The resulting mixture (5 μL final volume) was incubated at […] during 60 min., and the reaction was stopped by the addition of 5 μL of an aqueous EDTA-solution (50 mM EDTA, in 100 mM HEPES pH 7.5 and 0.2% (w/v) bovine serum albumin) which also contained the TR-FRET detection reagents (0.2 μM streptavidin-XL665 [Cisbio Bioassays, Codolet, France] and 1 nM anti-phosho-Serine antibody [Merck Millipore, cat. #35-001] and 0.4 nM LANCE EU-W1024 labeled anti-mouse IgG antibody [Perkin-Elmer, product no. AD0077, alternatively a Terbium-cryptate-labeled anti-mouse IgG antibody from Cisbio Bioassays can be used]). The stopped reaction mixture was further incubated 1 h at 22° C. in order to allow the formation of complexes between peptides and detection reagents. Subsequently, the amount of product was evaluated by measurement of the resonance energy transfer from the Eu-chelate-antibody complex recognizing the Phosphoserine residue to the streptavidin-XL665 bound to the biotin moiety of the peptide. […] IC50 values were calculated by fitting the normalized inhibition data to a 4-parameter logistic equation (Minimum, Maximum, IC50, Hill; Y=Max+(Min−Max)/(1+(X/IC50)Hill)).

[3] = TR-FRET, 10 μM ATP, 1 μM peptide substrate, read-out: Biological Assay 1: Bub1 kinase assay median IC50
[4] = cervical cancer, 4 days incubation, crystal violet staining

SMILES | IC50 [1] [nM] | IC50 [2, 3] [nM] | IC50 [1, 4] [nM] | IC50 [2] [nM]
Nc1cc(Nc2ccncc2)nc(-c2nn(Cc3ccccc3F)c3ccccc23)n1 [Example 2-1-1, 2-[1-(2-fluorobenzyl)-1H-indazol-3-yl]-N-(pyridin-4-yl)pyrimidine-4,6-diamine] | 3600 | 19 |  | 
CC(=O)Nc1cc(Nc2ccncc2)nc(-c2nn(Cc3ccccc3F)c3ccccc23)n1 [Example 2-2-1, N-{2-[1-(2-fluorobenzyl)-1H-indazol-3-yl]-6-(pyridin-4-ylamino)pyrimidin-4-yl}acetamide] |  |  | ≥ 10000 | > 20000
COCC(=O)Nc1cc(Nc2ccncc2)nc(-c2nn(Cc3ccccc3F)c3ccccc23)n1 [Example 2-2-2, N-{2-[1-(2-fluorobenzyl)-1H-indazol-3-yl]-6-(pyridin-4-ylamino)pyrimidin-4-yl}-2-methoxyacetamide] | ≥ 10000 | 96 |  | 
CC(=O)Nc1cc(N(c2ccncc2)c2ccncc2)nc(-c2nn(Cc3ccccc3F)c3ccccc23)n1 [Example 2-2-3, N-{6-(dipyridin-4-ylamino)-2-[1-(2-fluorobenzyl)-1H-indazol-3-yl]-pyrimidin-4-yl}acetamide] |  | 18000 |  | 
COCC(=O)Nc1cc(N(c2ccncc2)c2ccncc2)nc(-c2nn(Cc3ccccc3F)c3ccccc23)n1 [Example 2-2-4, N-{6-(dipyridin-4-ylamino)-2-[1-(2-fluorobenzyl)-1H-indazol-3-yl]pyrimidin-4-yl}-2-methoxyacetamide] |  |  |  | > 20000
CCOc1cc(F)c(Cn2nc(-c3nc(N)cc(Nc4ccncc4)n3)c3ccccc32)c(F)c1 [Example 2-3-1, 2-[1-(4-ethoxy-2,6-difluorobenzyl)-1H-indazol-3-yl]-N-(pyridin-4-yl)pyrimidine-4,6-diamine] | 1300 | 6.4 |  | 
CCOc1cc(F)c(Cn2nc(-c3nc(N)c(OC)c(Nc4ccncc4)n3)c3ccccc32)c(F)c1 [Example 2-3-2, 2-[1-(4-ethoxy-2,6-difluorobenzyl)-1H-indazol-3-yl]-5-methoxy-N-(pyridin-4-yl)pyrimidine-4,6-diamine] | 3800 | 8.3 |  | 
CCOc1cc(F)c(Cn2nc(-c3nc(N)c(N4CCOCC4)c(Nc4ccncc4)n3)c3ccccc32)c(F)c1 [Example 2-3-3, 2-[1-(4-ethoxy-2,6-difluorobenzyl)-1H-indazol-3-yl]-5-(morpholin-4-yl)-N-(pyridin-4-yl)pyrimidine-4,6-diamine] | 3600 | 4.3 |  | 
CCNC(=O)Nc1nc(-c2nn(Cc3c(F)cc(OCC)cc3F)c3ccccc23)nc(Nc2ccncc2)c1N1CCOCC1 [Example 2-3-4, 1-{2-[1-(4-ethoxy-2,6-difluorobenzyl)-1H-indazol-3-yl]-5-(morpholin-4-yl)-6-(pyridin-4-ylamino)pyrimidin-4-yl}-3-ethylurea] |  |  | ≥ 10000 | 130
CCOc1cc(F)c(Cn2nc(-c3nc(N)cc(Nc4ccncn4)n3)c3ccccc32)c(F)c1 [Example 2-3-5, 2-[1-(4-ethoxy-2,6-difluorobenzyl)-1H-indazol-3-yl]-N-(pyrimidin-4-yl)pyrimidine-4,6-diamine] | 7800 | 5.3 |  | 
CCOc1cc(F)c(Cn2nc(-c3nc(N)c(OC)c(Nc4ccncn4)n3)c3ccccc32)c(F)c1 [Example 2-3-6, 2-[1-(4-ethoxy-2,6-difluorobenzyl)-1H-indazol-3-yl]-5-methoxy-N-(pyrimidin-4-yl)pyrimidine-4,6-diamine] |  | 6.5 |  | 
CCOc1cc(F)c(Cn2nc(-c3nc(N)c(N4CCOCC4)c(Nc4ccncn4)n3)c3ccccc32)c(F)c1 [Example 2-3-7, 2-[1-(4-ethoxy-2,6-difluorobenzyl)-1H-indazol-3-yl]-5-(morpholin-4-yl)-N-(pyrimidin-4-yl)pyrimidine-4,6-diamine] | 9000 | 6.6 |  | 
CCNC(=O)Nc1nc(-c2nn(Cc3c(F)cc(OCC)cc3F)c3ccccc23)nc(Nc2ccncn2)c1N1CCOCC1 [Example 2-3-8, 1-{2-[1-(4-ethoxy-2,6-difluorobenzyl)-1H-indazol-3-yl]-5-(morpholin-4-yl)-6-(pyrimidin-4-ylamino)pyrimidin-4-yl}-3-ethylurea] |  |  | > 10000 | 280
CCOc1cc(F)c(Cn2nc(-c3nc(N)nc(Nc4ccncc4)n3)c3ccccc32)c(F)c1 [Example 2-3-9, 6-[1-(4-ethoxy-2,6-difluorobenzyl)-1H-indazol-3-yl]-N-(pyridin-4-yl)-1,3,5-triazine-2,4-diamine] | 2900 | 5.8 |  | 
CCOc1cc(F)c(Cn2nc(-c3nc(N)c(OCCOC)c(Nc4ccncc4)n3)c3ccccc32)c(F)c1 [Example 2-3-10, 2-[1-(4-ethoxy-2,6-difluorobenzyl)-1H-indazol-3-yl]-5-(2-methoxyethoxy)-N-(pyridin-4-yl)pyrimidine-4,6-diamine] | 3900 | 7.2 |  | 
CCOc1cc(F)c(Cn2nc(-c3nc(N)c(OCCOC)c(Nc4ccncn4)n3)c3ccccc32)c(F)c1 [Example 2-3-11, 2-[1-(4-ethoxy-2,6-difluorobenzyl)-1H-indazol-3-yl]-5-(2-methoxyethoxy)-N-(pyrimidin-4-yl)pyrimidine-4,6-diamine] | 3700 | 5.2 |  | 
CCOc1cc(F)c(Cn2nc(-c3nc(N)c(NC(=O)COC)c(Nc4ccncc4)n3)c3ccccc32)c(F)c1 [Example 2-3-13, N-{4-amino-2-[1-(4-ethoxy-2,6-difluorobenzyl)-1H-indazol-3-yl]-6-(pyridin-4-ylamino)pyrimidin-5-yl}-2-methoxyacetamide] | 7800 | 11 |  | 
CCOc1cc(F)c(Cn2nc(-c3nc(N)c(NC(=O)COC)c(Nc4ccncn4)n3)c3ccccc32)c(F)c1 [Example 2-3-14, N-{4-amino-2-[1-(4-ethoxy-2,6-difluorobenzyl)-1H-indazol-3-yl]-6-(pyrimidin-4-ylamino)pyrimidin-5-yl}-2-methoxyacetamide] | ≥ 10000 | 7.9 |  | 
CCOc1cc(F)c(Cn2nc(-c3nc(Nc4ccncc4)cc(Nc4ccncc4)n3)c3ccccc32)c(F)c1 [Example 2-4-1, 2-[1-(4-ethoxy-2,6-difluorobenzyl)-1H-indazol-3-yl]-N,N′-di(pyridine-4-yl)pyrimidine-4,6-diamine] |  | 81 |  | 
CCOc1cc(F)c(Cn2nc(-c3nc(Nc4ccncn4)c(N4CCOCC4)c(Nc4ccncn4)n3)c3ccccc32)c(F)c1 [Example 2-4-4, 2-[1-(4-ethoxy-2,6-difluorobenzyl)-1H-indazol-3-yl]-5-(morpholin-4-yl)-N,N′-di(pyrimidin-4-yl)pyrimidine-4,6-diamine] |  |  |  | 98
CCOc1cc(F)c(Cn2nc(-c3nc(Nc4ccncc4)c(OCCOC)c(Nc4ccncc4)n3)c3ccccc32)c(F)c1 [Example 2-4-6, 2-[1-(4-ethoxy-2,6-difluorobenzyl)-1H-indazol-3-yl]-5-(2-methoxyethoxy)-N,N′-di(pyridin-4-yl)pyrimidine-4,6-diamine] |  |  | ≥ 10000 | 
CCOc1cc(F)c(Cn2nc(-c3nc(Nc4ccncn4)c(OCCOC)c(Nc4ccncn4)n3)c3ccccc32)c(F)c1 [Example 2-4-7, 2-[1-(4-ethoxy-2,6-difluorobenzyl)-1H-indazol-3-yl]-5-(2-methoxyethoxy)-N,N′-di(pyrimidin-4-yl)pyrimidine-4,6-diamine] |  |  | ≥ 10000 | 
CCOc1cc(F)c(Cn2nc(-c3nc(Nc4ccncc4)c(NS(=O)(=O)C(F)(F)F)c(Nc4ccncc4)n3)c3ccccc32)c(F)c1 [Example 2-4-11, N-{2-[1-(4-ethoxy-2,6-difluorobenzyl)-1H-indazol-3-yl]-4,6-bis(pyridin-4-ylamino)pyrimidin-5-yl}-1,1,1-trifluoromethanesulfonamide] |  | 2100 |  | 

Reference: US20170283396A1, “DIAMINOHETEROARYL SUBSTITUTED INDAZOLES” (Bayer Pharma Aktiengesellschaft, priority 2013, published 2017)
